A short description of data set [1]: Pre-test: latanoprost dissolved in the HA vehicle (HPLC). It counts as physicochemical. The note with it: vehicle 0.15% w/v hylan A in phosphate buffered saline pH 7.4, 25 or 50 μg/ml added, stirred 18 hours at 40° C. As for the experimental part: Sterile bulk solution for the production of COMFORT SHIELD® MDS eye drops (i.com medical GmbH, Munich, Germany) was used as vehicle for the preparation of prototype latanoprost bulk solution (PLBS). The vehicle contained 0.15% w/v hylan A (HA with 2.9 m^3/kg intrinsic viscosity) dissolved in phosphate buffered saline solution (8.035 g/l NaCl; 1.2 mmol/l Na2HPO4/NaH2PO4; pH 7.4). Latanoprost was obtained from Yonsung Fine Chemicals Co. Ltd., Gyeonggi-do, Republic of Korea. PLBS was prepared by medi-pharm Laboratorium GmbH, Falkensee, Germany by dissolving 20±1 μg/ml latanoprost in the vehicle.
In a pre-test 25 μg/ml and 50 μg/ml latanoprost were added to the vehicle and the solution stirred for 18 hours at 40° C. The latanoprost content was determined by HPLC using a Hypersil B D S C18 […], 150.0×4.0 mm column (VDS optilab) and a UV detector (200 nm).

The conditions of data set [2]: PubChem CID 5311221; cited from earlier work.

Consider `CC(C)OC(=O)CCC/C=C\C[C@@H]1[C@@H](CC[C@@H](O)CCc2ccccc2)[C@H](O)C[C@@H]1O` [latanoprost], for which, in data set [1], the “latanoprost dissolved in the vehicle” value was 20.8 µg/mL. Also, in data set [2], the “solubility of latanoprost in water” value is 12.9 µg/mL.

These data come from patent publication US20230233687A1, “HYALURONIC ACID-BASED FORMULATIONS FOR TREATMENT AND PREVENTION OF OCULAR HYPERTENSION AND GLAUCOMA” (I.COM MEDICAL GMBH, priority 2020, published 2023).
